Literature values, collected in US12409146B2, “Solid lipid nanoparticle for intracellular release of active substances and method for production the same” (LEAD BIOTHERAPEUTICS LTD, priority 2017, dated 2025).
Converted amounts (≈) assume the structure as drawn.

In the case of `C[C@@H]1C[C@H]2[C@@H]3CCC4=CC(=O)C=C[C@]4(C)[C@@]3(Cl)[C@@H](O)C[C@]2(C)[C@@]1(OC(=O)c1ccco1)C(=O)CCl` [Mometasone furoate], the water solubility is given as 5.23 µg/mL (≈ 10 µM).
